Test results from patent US20100160370A1, “METHOD OF TREATMENT AND PHARMACEUTICAL COMPOSITIONS” (Gilead Sciences, Inc., priority 2008, published 2010).

Assays:
Assay type in all cases: in vivo
MCP-3 = assay: Bleomycin rat model: MCP-3 level in bronchoalveolar lavage fluid (Luminex/Procarta cytokine assay); details: for MCP-3 concentration (Average): oral gavage twice a day, BAL
Description: (§1) The bleomycin rat model was used in this study to evaluate (R)-N-((2S,3S)-2-(fluoromethyl)-2-hydroxy-5-oxo-tetrahydrofuran-3-yl)-5-isopropyl-3-(isoquinolin-1-yl)-4,5-dihydroisoxazole-5-carboxamide as a possible therapeutic drug for the treatment of idiopathic pulmonary fibrosis (IPF) and other fibrotic lung diseases. The bleomycin animal model of IPF is an art-recognized model for evaluating potentially therapeutic drugs for the treatment of IPF (see, e.g., F. Chua et al., Pulmonary Fibrosis, Searching for Model Answers, Am. J. Respir. Cell. Mol. Biol., 33:9-13 (2005); A. Moeller et al., The bleomycin animal model: A useful tool to investigate treatment options for idiopathic pulmonary fibrosis, International Journal of Biochemistry and Cell Biology, 40: 362-382 (2008)).
(§2) The rats receiving the test compound were gavaged twice a day from day zero (the day of bleomycin administration) through the day prior to necropsy. On days 14 and 28 the designated rats were euthanized with a pentobarbital-based solution, the chest cavity was opened and examined for gross pathology. The right lung was removed, canulated, and lavaged for determination of white blood cell counts. The lavaged tissue was flash frozen and analyzed for collagen content by measuring the amount of collagen. The left lung was fixed for histopathology. Homogenates from the lungs were analyzed for cytokines.
(§3) Intratracheal administration of bleomycin induces a two-stage response in the lungs of rats. The first stage is an inflammatory response which peaks at about 14 days after bleomycin administration, and the second stage is a fibrotic response that is apparent by 28 days after bleomycin administration. The inflammation markers that were measured in this study were the influx of leukocytes (neutrophils, macrophages and lymphocytes) into the airways, and the induction of the cytokines MCP-1 and MCP-3 (where MCP stands for Monocyte Chemoattractant Protein). Tables 2, 3, 4 and 5 show the total cell count, neutrophil count, macrophage count and the lymphocyte count, respectively, from the treated rats at 14 days and 28 days (Values for cell numbers are ×10^6). The abbreviation SEM stands for Standard Error of the Mean. In Tables 2 thru 8 the t-test was an unpaired, two-tailed, t-test performed using a GraphPad Prism version 5.01 for Windows (GraphPad Software, San Diego, Calif. USA).
(§4) Additionally, MCP-1 and MCP-3 levels in the rat Bronchoalveolar Lavage Fluid (BAL) were measured using Luminex xMap Technology CS1000 (Austin, Tex.) and a Procarta Cytokine Assay Kit (rat 15-plex) manufactured by Panomics, Inc. (Fremont, Calif.) that included analytes for: IL-1α, IL-1β, IL-6, TNFα, KC, MCP-1, MCP-3, MIP-1α, RANTES, VEGF, TGFb, IL-4, IL-10, IFNg, and GM-CSF. Three replicate assay wells (n=3) were analyzed for each experimental sample following the manufacturer's instructions. Quantitation of each analyte was determined against standard curves using MiraiBio's (Alameda, Calif.) Masterplex QT v 3.0 software. For all samples, background signals in the absence of BAL were determined and subtracted from signals obtained in the presence of BAL to obtain the net signal. Statistical significance of biological studies was tested with a two-tailed Student t-test. Tables 6 and 7 show the concentrations of cytokines MCP-1 and MCP-3, respectively, in the airways of the treated rats, expressed in pg/mL.

bleomycin rat model = assay: Bleomycin rat model: white blood cell counts in lung lavage; details: for Lymphocyte Count (Average) / Macrophage Count (Average) / Neutrophil Count (Average) / Total Cell Count (Average): oral gavage twice a day, lung lavage
Description: The bleomycin rat model was used in this study to evaluate (R)-N-((2S,3S)-2-(fluoromethyl)-2-hydroxy-5-oxo-tetrahydrofuran-3-yl)-5-isopropyl-3-(isoquinolin-1-yl)-4,5-dihydroisoxazole-5-carboxamide as a possible therapeutic drug for the treatment of idiopathic pulmonary fibrosis (IPF) and other fibrotic lung diseases. The bleomycin animal model of IPF is an art-recognized model for evaluating potentially therapeutic drugs for the treatment of IPF (see, e.g., F. Chua et al., Pulmonary Fibrosis, Searching for Model Answers, Am. J. Respir. Cell. Mol. Biol., 33:9-13 (2005); A. Moeller et al., The bleomycin animal model: A useful tool to investigate treatment options for idiopathic pulmonary fibrosis, International Journal of Biochemistry and Cell Biology, 40: 362-382 (2008)). In this Example, (R)-N-((2S,3S)-2-(fluoromethyl)-2-hydroxy-5-oxo-tetrahydrofuran-3-yl)-5-isopropyl-3-(isoquinolin-1-yl)-4,5-dihydroisoxazole-5-carboxamide is referred to as the “test compound” for ease of reference. […] The abbreviations used in Table 1 are Bleo (bleomycin), IT (intratracheal), mg/kg (milligram per kilogram), N (number) and n/a (not applicable). [table] The rats receiving the test compound were gavaged twice a day from day zero (the day of bleomycin administration) through the day prior to necropsy. On days 14 and 28 the designated rats were euthanized with a pentobarbital-based solution, the chest cavity was opened and examined for gross pathology. The right lung was removed, canulated, and lavaged for determination of white blood cell counts. The lavaged tissue was flash frozen and analyzed for collagen content by measuring the amount of collagen. The left lung was fixed for histopathology. Homogenates from the lungs were analyzed for cytokines. Intratracheal administration of bleomycin induces a two-stage response in the lungs of rats. The first stage is an inflammatory response which peaks at about 14 days after bleomycin administration, and the second stage is a fibrotic response that is apparent by 28 days after bleomycin administration. The inflammation markers that were measured in this study were the influx of leukocytes (neutrophils, macrophages and lymphocytes) into the airways, and the induction of the cytokines MCP-1 and MCP-3 (where MCP stands for Monocyte Chemoattractant Protein). Tables 2, 3, 4 and 5 show the total cell count, neutrophil count, macrophage count and the lymphocyte count, respectively, from the treated rats at 14 days and 28 days (Values for cell numbers are ×10^6). The abbreviation SEM stands for Standard Error of the Mean. In Tables 2 thru 8 the t-test was an unpaired, two-tailed, t-test performed using a GraphPad Prism version 5.01 for Windows (GraphPad Software, San Diego, Calif. USA).

collagen = assay: Bleomycin rat model: lung collagen deposition (pepsin digest, SDS-PAGE densitometry); set-up: Collagen Response (Average collagen concentration): unit not given here; details: for Collagen Response (Average collagen concentration): oral gavage twice a day, 28 day, lung tissue
Description: The bleomycin rat model was used in this study to evaluate (R)-N-((2S,3S)-2-(fluoromethyl)-2-hydroxy-5-oxo-tetrahydrofuran-3-yl)-5-isopropyl-3-(isoquinolin-1-yl)-4,5-dihydroisoxazole-5-carboxamide as a possible therapeutic drug for the treatment of idiopathic pulmonary fibrosis (IPF) and other fibrotic lung diseases. The bleomycin animal model of IPF is an art-recognized model for evaluating potentially therapeutic drugs for the treatment of IPF (see, e.g., F. Chua et al., Pulmonary Fibrosis, Searching for Model Answers, Am. J. Respir. Cell. Mol. Biol., 33:9-13 (2005); A. Moeller et al., The bleomycin animal model: A useful tool to investigate treatment options for idiopathic pulmonary fibrosis, International Journal of Biochemistry and Cell Biology, 40: 362-382 (2008)). The rats receiving the test compound were gavaged twice a day from day zero (the day of bleomycin administration) through the day prior to necropsy. On days 14 and 28 the designated rats were euthanized with a pentobarbital-based solution, the chest cavity was opened and examined for gross pathology. The right lung was removed, canulated, and lavaged for determination of white blood cell counts. The lavaged tissue was flash frozen and analyzed for collagen content by measuring the amount of collagen. The left lung was fixed for histopathology. Homogenates from the lungs were analyzed for cytokines. […] Gels were then stained with Coomassie Blue and stained bands migrating coincident with type I collagen standards were compared by densitometry to the Coomassie stained collagen standards in order to quantitate collagen content. Under the reducing conditions employed in the analysis, the quantitated lung sample gel bands represented the alpha 1 and 2 chains of type I collagen and the alpha 1 chain of type Ill collagen. Blots were scanned with a BioRad GS-800 Scanner and their density was quantitated using “Quantity One” computer software from BioRad. Results were averaged for each treatment group and expressed as micrograms of collagen/mg of lung tissue.

MCP-1 = assay: Bleomycin rat model: MCP-1 level in bronchoalveolar lavage fluid (Luminex/Procarta cytokine assay); details: for MCP-1 concentration (Average): oral gavage twice a day, BAL
Description: as §1, §2, §3, §4

[1] = Bleomycin IT 3.5 mg/kg + 10 mg/Kg test compound, 14 day
[2] = Bleomycin IT 3.5 mg/kg + 10 mg/Kg test compound, 28 day
[3] = Bleomycin IT 3.5 mg/kg + 30 mg/Kg test compound, 14 day
[4] = Bleomycin IT 3.5 mg/kg + 30 mg/Kg test compound, 28 day
[5] = bleomycin-treated rats, result in words
[6] = orally administered, bleomycin-treated rats, result in words

Q: For `CC(C)[C@@]1(C(=O)N[C@H]2CC(=O)O[C@]2(O)CF)CC(c2nccc3ccccc23)=NO1` [Test Compound, (R)-N-((2S,3S)-2-(fluoromethyl)-2-hydroxy-5-oxo-tetrahydrofuran-3-yl)-5-isopropyl-3-(isoquinolin-1-yl)-4,5-dihydroisoxazole-5-carboxamide], which “MCP-3 concentration (Average)” value (MCP-3; [1]) is on record?
A: 37.987 pg/mL

Q: And the “MCP-3 concentration (Average)” value (MCP-3; [2])?
A: 7.075 pg/mL

Q: And the “MCP-3 concentration (Average)” value (MCP-3; [3])?
A: 5.668 pg/mL

Q: And the “MCP-3 concentration (Average)” value (MCP-3; [4])?
A: 6.497 pg/mL

Q: What about the “production of MCP-3 in the lungs” value (MCP-3; [5]) of the same compound?
A: inhibited the production

Q: What about the “Lymphocyte Count (Average)” value (bleomycin rat model; [1]) of the same compound?
A: 0.002 ×10^6

Q: And the “Macrophage Count (Average)” value (bleomycin rat model; [1])?
A: 0.415 ×10^6

Q: What about the “Neutrophil Count (Average)” value (bleomycin rat model; [1]) of the same compound?
A: 0.006 ×10^6

Q: And the “Total Cell Count (Average)” value (bleomycin rat model; [1])?
A: 1.988 ×10^6

Q: And the “Lymphocyte Count (Average)” value (bleomycin rat model; [2])?
A: 0.007 ×10^6

Q: And the “Macrophage Count (Average)” value (bleomycin rat model; [2])?
A: 0.442 ×10^6

Q: And the “Neutrophil Count (Average)” value (bleomycin rat model; [2])?
A: 0.012 ×10^6

Q: What about the “Total Cell Count (Average)” value (bleomycin rat model; [2]) of the same compound?
A: 2.276 ×10^6

Q: What about the “Lymphocyte Count (Average)” value (bleomycin rat model; [3]) of the same compound?
A: 0.003 ×10^6

Q: And the “Macrophage Count (Average)” value (bleomycin rat model; [3])?
A: 0.285 ×10^6

Q: What about the “Neutrophil Count (Average)” value (bleomycin rat model; [3]) of the same compound?
A: 0.005 ×10^6

Q: What about the “Total Cell Count (Average)” value (bleomycin rat model; [3]) of the same compound?
A: 1.482 ×10^6

Q: And the “Lymphocyte Count (Average)” value (bleomycin rat model; [4])?
A: 0.004 ×10^6

Q: And the “Macrophage Count (Average)” value (bleomycin rat model; [4])?
A: 0.476 ×10^6

Q: And the “Neutrophil Count (Average)” value (bleomycin rat model; [4])?
A: 0.008 ×10^6

Q: What about the “Total Cell Count (Average)” value (bleomycin rat model; [4]) of the same compound?
A: 2.207 ×10^6

Q: What about the “influx of lymphocytes into the airways” value (bleomycin rat model; [6]) of the same compound?
A: inhibited the influx

Q: And the “influx of macrophages into the airways” value (bleomycin rat model; [6])?
A: inhibited the influx

Q: And the “influx of neutrophils into the airways” value (bleomycin rat model; [6])?
A: inhibited the influx

Q: And the “Collagen Response (Average collagen concentration)” value (collagen; Bleomycin IT 3.5 mg/kg + 10 mg/Kg test compound)?
A: 2.353

Q: And the “Collagen Response (Average collagen concentration)” value (collagen; Bleomycin IT 3.5 mg/kg + 30 mg/Kg test compound)?
A: 3.891

Q: And the “deposition of collagen during the fibrotic phase of the bleomycin response” value (collagen; [6])?
A: inhibited the deposition of collagen

Q: And the “MCP-1 concentration (Average)” value (MCP-1; [1])?
A: 66.122 pg/mL

Q: And the “MCP-1 concentration (Average)” value (MCP-1; [2])?
A: 12.800 pg/mL

Q: And the “MCP-1 concentration (Average)” value (MCP-1; [3])?
A: 13.838 pg/mL

Q: What about the “MCP-1 concentration (Average)” value (MCP-1; [4]) of the same compound?
A: 11.844 pg/mL

Q: And the “production of MCP-1 in the lungs” value (MCP-1; [5])?
A: inhibited the production
